Measured values taken from US9840498B2, “Substituted quinazolin-4-one derivatives” (NOVARTIS AG, priority 2013, dated 2017).

What was measured:
PI3K delta = PI3K delta (Homo sapiens (Human), UniProt O00329); assay: Biochemical assay for PI3Kdelta (Adapta TR-FRET format); details: enzymatic assay
Source text: (§1) For the enzymatic assays, the preparation of PI3K gene constructs, protein expression and purification for HTS are described in WO2012/004299. […] The TR-FRET Adapta™ Universal Kinase Assay Kit was purchased from Invitrogen Corporation (Carlsbad/CA, USA) (Cat. No. PV5099). The kit contains the following reagents: Adapta Eu-anti-ADP Antibody (Europium labeled anti-ADP antibody in HEPES buffered saline, Cat. No. PV5097), Alexa Fluor® 647-labeled ADP tracer (Alexa Fluor® 647-labeled ADP tracer in HEPES buffered saline, Cat. No. PV5098), proprietary TR-FRET dilution buffer pH 7.5 (Cat. No. PV3574). PIK3CD substrate Phosphatidylinositol was obtained from Invitrogen (vesicules consisting of 2 mM PI in 50 mM HEPES pH7.5; Cat. No. PV5371). PIK3CG substrate Phosphatidylinositol-4,5-bisphosphate (PIP(4,5)2 was obtained from Invitrogen (PIP2:PS large unilamellar vesicules consisting of 1 mM PI P2: 19 mM PS in 50 mM HEPES pH7.5, 3 mM MgCl2, 1 mM EGTA; Cat. No. PV5100). Time-Resolved Fluorescence Resonance Energy Transfer (TR-FRET) is a technology based on energy transfer between two adjacent dyes, from an excited electron in one dye (the donor) to an electron of an adjacent dye (the acceptor) through resonance, then released as a photon. This energy transfer is detected by an increase in the fluorescence emission of the acceptor, and a decrease in the fluorescence emission of the donor. TR-FRET assays for protein kinases use a long-lifetime lanthanide Terbium or Europium chelates as the donor species which overcome interference from compound autofluorescence or light scatter from precipitated compounds, by introducing a delay after excitation by a flashlamp excitation source. Results are often expressed as a ratio of the intensities of the acceptor and donor fluorophores. The ratiometric nature of such a value corrects for differences in assay volumes between wells, as well as corrects for quenching effects due to colored compounds. The Adapta™ assay can be divided into two phases: a kinase reaction phase and an ADP detection phase. In the kinase reaction phase, all kinase reaction components are added to the well and the reaction is allowed to incubate for a set period of time specific for each kinase. After the reaction, a detection solution of Eu-labeled anti-ADP antibody, Alexa Fluor® 647-labeled ADP tracer, and EDTA (to stop the kinase reaction) are added to the assay well. ADP formed by the kinase reaction will displace the Alexa Fluor® 647-labeled ADP tracer from the antibody, resulting in a decrease in TR-FRET signal. In the presence of an inhibitor, the amount of ADP formed by the kinase reaction is reduced, and the resulting intact antibody-tracer interaction maintains a high TR-FRET signal. In the Adapta™ assay, the donor (Europium-anti-ADP antibody) is excited at 340 nm and will transfer its energy to the acceptor (Alexa Fluor® 647-labeled ADP tracer). The emission from the Alexa Fluor® 647 can be monitored with a filter centered at 665 nm because it is located between the emission peaks of the donor, which is measured at 615/620 nm. 50 nL of compound dilutions were dispensed onto white 384-well small volume polystyrene plate as described in section 2.2. Then 5 μL of PI3Kgamma and PI3Kdelta and lipid substrate (PI or PIP2:PS) followed by 5 μL of ATP (final assay volume 10 μL) are incubated at RT. […] Reactions were stopped with 5 μL of a mixture of EDTA containing the Eu-labeled anti-ADP antibody and the Alexa Fluor® 647-labeled ADP tracer in TR-FRET dilution buffer (proprietary to IVG). Plates are read 15 to 60 mins later in a Synergy2 reader using an integration time of 0.4 seconds and a delay of 0.05 seconds. […] The control for the 0% inhibition was given by the solvent vehicle of the compounds (90% DMSO in H2O). Data are analyzed using Excel fit software or Graphpad Prism. EC50 values were derived by fitting a sigmoidal dose-response curve to a plot of assay readout over inhibitor concentration. […]

PI3K gamma = PI3K gamma (Homo sapiens (Human), UniProt P48736); assay: Biochemical assay for PI3Kgamma (Adapta TR-FRET format); details: enzymatic assay
Source text: as §1

Chain of PI3K gamma (P48736 whole entry): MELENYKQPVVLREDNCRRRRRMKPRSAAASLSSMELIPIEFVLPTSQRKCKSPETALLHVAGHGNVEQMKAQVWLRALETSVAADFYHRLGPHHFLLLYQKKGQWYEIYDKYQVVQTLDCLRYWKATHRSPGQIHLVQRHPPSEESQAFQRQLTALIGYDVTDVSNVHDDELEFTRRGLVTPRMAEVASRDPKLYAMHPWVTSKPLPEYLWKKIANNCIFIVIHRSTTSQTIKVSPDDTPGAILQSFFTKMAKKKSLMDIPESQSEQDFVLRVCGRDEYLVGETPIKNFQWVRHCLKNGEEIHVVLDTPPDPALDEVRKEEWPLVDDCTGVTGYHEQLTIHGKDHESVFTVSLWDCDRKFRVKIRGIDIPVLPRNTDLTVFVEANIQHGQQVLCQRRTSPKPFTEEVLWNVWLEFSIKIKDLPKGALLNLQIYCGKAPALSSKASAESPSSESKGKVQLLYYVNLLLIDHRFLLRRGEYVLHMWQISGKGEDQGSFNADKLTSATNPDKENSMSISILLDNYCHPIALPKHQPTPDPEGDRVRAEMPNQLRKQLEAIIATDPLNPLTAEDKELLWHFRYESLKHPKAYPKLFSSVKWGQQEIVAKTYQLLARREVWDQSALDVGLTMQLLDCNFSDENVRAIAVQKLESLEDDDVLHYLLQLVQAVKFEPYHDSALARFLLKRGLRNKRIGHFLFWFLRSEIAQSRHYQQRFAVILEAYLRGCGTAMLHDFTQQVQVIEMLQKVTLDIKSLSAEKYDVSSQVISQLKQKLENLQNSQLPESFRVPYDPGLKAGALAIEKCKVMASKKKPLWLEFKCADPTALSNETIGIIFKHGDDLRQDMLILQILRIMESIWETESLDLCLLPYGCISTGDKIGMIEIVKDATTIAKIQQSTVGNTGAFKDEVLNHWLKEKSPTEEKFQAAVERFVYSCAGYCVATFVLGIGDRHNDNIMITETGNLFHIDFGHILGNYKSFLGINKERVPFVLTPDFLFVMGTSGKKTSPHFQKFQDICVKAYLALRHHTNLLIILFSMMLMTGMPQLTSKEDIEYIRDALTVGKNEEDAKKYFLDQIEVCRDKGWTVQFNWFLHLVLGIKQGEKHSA
Chain of PI3K delta (O00329 2-1044): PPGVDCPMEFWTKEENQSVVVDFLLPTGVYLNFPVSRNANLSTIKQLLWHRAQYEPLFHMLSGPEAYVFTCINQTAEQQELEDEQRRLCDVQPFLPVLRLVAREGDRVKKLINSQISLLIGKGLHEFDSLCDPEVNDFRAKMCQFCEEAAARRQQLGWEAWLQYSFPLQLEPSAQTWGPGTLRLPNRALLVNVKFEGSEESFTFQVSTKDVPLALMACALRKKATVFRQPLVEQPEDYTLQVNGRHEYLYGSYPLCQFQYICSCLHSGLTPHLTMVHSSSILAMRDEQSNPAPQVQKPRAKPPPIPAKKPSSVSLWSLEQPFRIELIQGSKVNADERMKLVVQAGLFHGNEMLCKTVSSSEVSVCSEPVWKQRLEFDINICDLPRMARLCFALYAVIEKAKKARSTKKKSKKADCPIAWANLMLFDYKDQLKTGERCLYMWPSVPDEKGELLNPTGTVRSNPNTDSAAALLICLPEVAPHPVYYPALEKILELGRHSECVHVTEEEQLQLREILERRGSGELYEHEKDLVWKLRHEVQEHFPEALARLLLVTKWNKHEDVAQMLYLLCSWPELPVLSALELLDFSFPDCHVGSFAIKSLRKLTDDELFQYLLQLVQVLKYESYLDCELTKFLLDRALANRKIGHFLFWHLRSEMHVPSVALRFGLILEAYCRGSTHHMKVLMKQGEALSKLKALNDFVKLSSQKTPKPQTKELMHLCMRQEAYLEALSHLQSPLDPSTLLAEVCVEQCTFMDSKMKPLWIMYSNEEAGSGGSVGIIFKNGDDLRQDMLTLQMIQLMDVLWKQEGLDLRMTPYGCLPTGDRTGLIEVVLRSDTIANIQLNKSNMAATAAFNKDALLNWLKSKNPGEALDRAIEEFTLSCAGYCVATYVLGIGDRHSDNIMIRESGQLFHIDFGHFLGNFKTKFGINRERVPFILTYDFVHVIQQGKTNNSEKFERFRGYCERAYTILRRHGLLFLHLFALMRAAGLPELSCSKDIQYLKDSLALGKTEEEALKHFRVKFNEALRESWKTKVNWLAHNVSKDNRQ
Chain of PI3K delta (P27986 461-568 partner): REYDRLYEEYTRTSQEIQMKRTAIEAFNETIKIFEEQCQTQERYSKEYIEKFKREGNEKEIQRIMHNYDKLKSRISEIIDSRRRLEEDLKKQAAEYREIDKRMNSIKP

Structure (SMILES)	IC50 (PI3K delta)	IC50 (PI3K gamma)
Cc1nc(N)nc(N2C[C@@H](O)C[C@H]2c2nc3ccc(F)c(-c4cnn(C)c4)c3c(=O)n2-c2ccccc2)c1C#N [Example 1, 2-Amino-4-((2S,4S)-2-(6-fluoro-5-(1-methyl-1H-pyrazol-4-yl)-4-oxo-3-phenyl-3,4-dihydroquinazolin-2-yl)-4-hydroxypyrrolidin-1-yl)-6-methylpyrimidine-5-carbonitrile]	8 nM	28 nM
Cn1cc(-c2cccc3nc([C@@H]4CCCN4c4ncnc(N)c4C#N)n(-c4ccccc4)c(=O)c23)cn1 [Example 2, (S)-4-Amino-6-(2-(5-(1-methyl-1H-pyrazol-4-yl)-4-oxo-3-phenyl-3,4-dihydroquinazolin-2-yl)pyrrolidin-1-yl)pyrimidine-5-carbonitrile]	–	150 nM
COc1ncc(-c2cccc3nc([C@@H]4CCCN4c4ncnc(N)c4C#N)n(-c4ccccc4)c(=O)c23)cn1 [Example 3, (S)-4-Amino-6-(2-(5-(2-methoxypyrimidin-5-yl)-4-oxo-3-phenyl-3,4-dihydroquinazolin-2-yl)pyrrolidin-1-yl)pyrimidine-5-carbonitrile]	8 nM	1200 nM
COc1ncc(-c2cccc3nc([C@@H]4CCCN4c4nc(N)nc(C)c4C#N)n(-c4ccccc4)c(=O)c23)cn1 [Example 4, (S)-2-Amino-4-(2-(5-(2-methoxypyrimidin-5-yl)-4-oxo-3-phenyl-3,4-dihydroquinazolin-2-yl)pyrrolidin-1-yl)-6-methylpyrimidine-5-carbonitrile]	6 nM	82 nM
Cn1cc(-c2c(F)ccc3nc([C@@H]4CCCN4c4ncnc(N)c4C#N)n(-c4ccccc4)c(=O)c23)cn1 [Example 5, (S)-4-Amino-6-(2-(6-fluoro-5-(1-methyl-1H-pyrazol-4-yl)-4-oxo-3-phenyl-3,4-dihydroquinazolin-2-yl)pyrrolidin-1-yl)pyrimidine-5-carbonitrile]	4 nM	85 nM
Cc1nc(N)nc(N2CCC[C@H]2c2nc3ccc(F)c(-c4cnn(C)c4)c3c(=O)n2-c2ccccc2)c1C#N [Example 6, (S)-2-Amino-4-(2-(6-fluoro-5-(1-methyl-1H-pyrazol-4-yl)-4-oxo-3-phenyl-3,4-dihydroquinazolin-2-yl)pyrrolidin-1-yl)-6-methylpyrimidine-5-carbonitrile]	9 nM	56 nM
COc1ncc(-c2c(F)ccc3nc([C@@H]4C[C@H](O)CN4c4nc(N)nc(C)c4C#N)n(-c4ccccc4)c(=O)c23)cn1 [Example 7, 2-Amino-4-((2S,4S)-2-(6-fluoro-5-(2-methoxypyrimidin-5-yl)-4-oxo-3-phenyl-3,4-dihydroquinazolin-2-yl)-4-hydroxypyrrolidin-1-yl)-6-methylpyrimidine-5-carbonitrile]	6 nM	110 nM
Cn1cc(-c2c(F)ccc3nc([C@@H]4C[C@H](O)CN4c4ncnc(N)c4C#N)n(-c4ccccc4)c(=O)c23)cn1 [Example 8, 4-Amino-6-((2S,4S)-2-(6-fluoro-5-(1-methyl-1H-pyrazol-4-yl)-4-oxo-3-phenyl-3,4-dihydroquinazolin-2-yl)-4-hydroxypyrrolidin-1-yl) pyrimidine-5-carbonitrile]	14 nM	750 nM
COc1ncc(-c2c(F)ccc3nc([C@@H]4C[C@H](O)CN4c4nc(N)nc(C)c4C#N)n(-c4ccccc4)c(=O)c23)s1 [Example 9, 2-Amino-4-((2S,4S)-2-(6-fluoro-5-(2-methoxythiazol-5-yl)-4-oxo-3-phenyl-3,4-dihydroquinazolin-2-yl)-4-hydroxypyrrolidin-1-yl)-6-methylpyrimidine-5-carbonitrile]	8 nM	18 nM
CO[C@H]1C[C@@H](c2nc3cccc(-c4cnn(C)c4)c3c(=O)n2-c2ccccc2)N(c2nc(N)nc(C)c2C#N)C1 [Example 10, 2-Amino-4-((2S,4S)-4-methoxy-2-(5-(1-methyl-1H-pyrazol-4-yl)-4-oxo-3-phenyl-3,4-dihydroquinazolin-2-yl)pyrrolidin-1-yl)-6-methylpyrimidine-5-carbonitrile]	6 nM	38 nM
